Results: patent US4808521A, “Double-labeled enzymeimmunoassay methods” (priority 1985, dated 1989)

Biological target: β-galactosidase (Escherichia coli, UniProt P00722)
Assay: Kinetics of β-galactosidase hydrolysis of p-NPBG and its inhibition by diethanolamine
Assay type: biochemical
Settings: about 1M diethanolamine, pH 8.6, normal p-NPBG concentrations (up to approximately 5mM)
Experimental: β-galactosidase has a pH optimum of 7.4 for p-nitrophenyl-β-D-galactoside (p-NPBG), although in a single assay format using normal substrate concentrations (up to approximately 5mM), the pH can be raised to 8.6 with only a slight loss (approximately 20%) of activity.

Chain of β-galactosidase (P00722 2-1024): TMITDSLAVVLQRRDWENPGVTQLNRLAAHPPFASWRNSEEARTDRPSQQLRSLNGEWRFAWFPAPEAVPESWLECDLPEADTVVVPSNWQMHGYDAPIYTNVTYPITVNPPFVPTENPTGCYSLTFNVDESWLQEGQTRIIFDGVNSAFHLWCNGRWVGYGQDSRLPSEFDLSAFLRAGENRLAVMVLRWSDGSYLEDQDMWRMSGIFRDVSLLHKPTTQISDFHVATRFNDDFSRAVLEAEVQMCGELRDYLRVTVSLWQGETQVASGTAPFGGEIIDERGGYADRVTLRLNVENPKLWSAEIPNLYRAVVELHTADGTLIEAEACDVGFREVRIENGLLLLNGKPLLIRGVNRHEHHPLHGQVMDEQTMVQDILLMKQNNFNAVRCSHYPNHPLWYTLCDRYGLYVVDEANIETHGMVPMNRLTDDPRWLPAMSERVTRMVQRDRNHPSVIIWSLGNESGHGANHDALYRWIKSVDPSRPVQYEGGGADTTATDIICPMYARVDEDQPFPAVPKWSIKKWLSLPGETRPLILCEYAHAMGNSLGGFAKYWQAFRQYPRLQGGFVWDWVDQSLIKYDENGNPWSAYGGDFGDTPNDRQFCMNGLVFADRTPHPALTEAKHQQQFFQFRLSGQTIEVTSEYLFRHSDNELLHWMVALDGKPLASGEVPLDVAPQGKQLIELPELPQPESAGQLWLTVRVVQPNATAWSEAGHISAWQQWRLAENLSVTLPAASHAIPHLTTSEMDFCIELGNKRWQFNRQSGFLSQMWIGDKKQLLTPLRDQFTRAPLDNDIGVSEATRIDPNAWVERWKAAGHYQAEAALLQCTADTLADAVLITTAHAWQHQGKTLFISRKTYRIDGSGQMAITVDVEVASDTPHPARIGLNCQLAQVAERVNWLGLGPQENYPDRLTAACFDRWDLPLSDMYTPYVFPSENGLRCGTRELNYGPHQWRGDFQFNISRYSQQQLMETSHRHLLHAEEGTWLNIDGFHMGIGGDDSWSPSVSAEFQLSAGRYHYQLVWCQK

## OCCNCCO [diethanolamine]
  activity of β-galactosidase in the presence of diethanolamine: almost totally abolished
